Source: patent publication US20060052357A1, “Organometallic anti-tumour agent” (priority 2001, published 2006)

Assays:
[1] = test system: adenocarcinoma; test: Adenocarcinoma, intravenous administration four times; type: in vivo, mice; details: 5 mg/kg intravenous four times
Excerpt: 2. Antitumor Activity for Adenocarcinoma and Intra-Venous Administration (Four Times in Physiological Saline Solution)

[2] = test system: adenocarcinoma; test: Adenocarcinoma transplanted after administration of the product; type: in vivo, mice; details: day 21
Procedure: 3. Antitumor Activity for Adenocarcinoma Transplanted After Administration of the Product.
The active ingredient of the invention was administered intravenously in the dosage stated in the table 4 days in succession in physiological saline solution of 0.3 ml each time. The adenocarcinoma was then implanted in the Balb mice. 21 days after the tumor was transplanted, the animals were sacrificed and the weight and size of the tumor recorded. The animals received no other drugs during the experiment and were kept with a normal feed ration.

[3] = test system: B-16 melanoma tumor; test: B-16 melanoma in Black-line mice (Example 6); type: in vivo
Procedure: After transplantation of the B-16 melanoma tumor to Black-line mice. (cell suspension with 10×10^6 cells/ml), MOC.melphalan was administered intraabdominally in a dosage of 5 mg/kg in 0.3 ml of 10% DMSO solution on days 3, 5 and 9. The animals were sacrificed on day 21 of the investigation and underwent histological, morphological examination (see table 9).
After transplantation of the B-16 melanoma tumor into black-line mice (cell suspension with 10×10^6 cells/ml), the substance was administered intraabdominally in a dosage of 0.1 mg/animal in 0.3 ml of 10% DMSO solution on days 3, 5 and 9. The animals were sacrificed on day 16 of the investigation and underwent histological, morphological examination (see table 10, FIGS. 1, 2). The DNA concentration in the tumor cells was determined by spectrophotometry after electrophoresis. (Table 10, FIG. 3).

[4] = test system: S-180 sarcoma tumor; test: S-180 sarcoma in white crossbred mice (Example 7); type: in vivo; details: day 21
Procedure: After transplantation of the S-180 sarcoma tumor into white crossbred mice, the animals received the substance MOC.melphalan by intraabdominal administration in a dosage of 1 mg/kg in 0.3 ml of 10% DMSO solution on days 3, 5 and 9. The animals were sacrificed on day 21 of the investigation and underwent histological, morphological examination (table 11).
(§1) After transplantation of the S-180 sarcoma tumor into white crossbred mice, the animals received MOC.melphalan and melphalan by intraabdominal administration in a dosage of 5 mg/kg in 0.3 ml of 10% DMSO solution on days 3, 5, 7 and 9. The animals were sacrificed on day 21 of the investigation and underwent histological, morphological examination (table 12).
as §1, with “2, 4, 6, 8” for “3, 5, 7”, “10.” for “9.”, “13).” for “12).”

[5] = test system: AKATON tumor; test: AKATON tumor prevention by MOC.melphalan; type: in vivo, mice; details: for Average tumor mass: control 4.46; for Average tumor volume: control 7.90
Procedure: Mice of the Balb line received the substance MOC.melphalan in dosages of 2.5 mg/kg and 5 mg/kg in 0.3 ml of physiological solution by intravenous administration on four consecutive days (1× a day). On day 5, the AKATON tumor was implanted in the animals. The animals were sacrificed on day 21 of the investigation and underwent histological, morphological examination (table 16, FIG. 6).

[6] = test system: S-180 sarcoma tumor cells; test: DNA concentration in S-180 sarcoma tumor cells after incubation; type: cell-based, mice; details: 0.05 mg/10^6 cells; for DNA concentration: 37° C., control 106; for DNA concentration/control: control 100
Procedure: S-180 sarcoma tumor cells (20·10^6 cells/investigation) were incubated with the substance MOC.melphalan in a concentration of 0.05 mg/10^6 cells at a temperature of 37° C. for 40 or 60 min (see table 16).
The DNA concentration was determined using the phenol-chloroform method of MANIATIS (Maniatis, Frin, Sämbruck Methods of genetic engineering, Molecular Cloning, M.: MIR, 1984, pages 479 et seq.). Separation of DNA and RNA was followed by a phoresis in a 2.5% agarose gel (see table 16, FIG. 7).

[7] = test system: tumor cell cultures (KML); test: Suppression of cell proliferation in tumor cell cultures (KML); type: cell-based, mice; details: incubation 24 hours
Procedure: The effect of the substances MOC.melphalan and MOC.tegafur of the invention on the proliferative activity, morphology and protein synthesis was investigated on tumor cell cultures (KML). This took place with the mice separated out of the melanoma-16 line. 80 000 cells/ml were distributed in 3 ml of DMEM with the addition of embryonic calf serum, 200 μ/mol of glutamine and antibiotic. After cultivation of the cells at a temperature of 37° C. for 24 hours (logarithmic cell growth phase), the MOC substances were added in the concentration of 10 and 100 μg/ml. After incubation for 24 hours, the number of live cells was determined. In parallel, the fixed specimens of the cells were prepared for morphological analysis.

[8] = test system: tumor cell cultures (KML); test: Protein synthesis: inclusion of 3H-amino acids in tumor cell cultures; type: cell-based, mice; details: 50 μg/ml, incubation 24 hours
Procedure: The effect of the substances on protein synthesis is determined with the aid of the suppression stage through the inclusion of radioactive precursors of amino acids (totaled mixture of ^3H-amino acids). 1 million cells in a “log phase” were selected for this. The complexes were introduced in a dosage of 50 μg/ml and, in parallel, the amino acids with an activity of 10 mCi/ml were introduced into 10 ml bottles. After incubation for 24 hours, the cells were washed out from the cultivation nutrient medium, and a lysis (disruption) was carried out. The radioactivity of the proteins was determined in a […] (table 25).

[9] = test system: leukemia P-388; test: Leukemia P-388 survival (original strain); type: in vivo, mice
[10] = 5 mg/kg i.v. 4 days before implantation
[11] = 2.5 mg/kg i.v. four consecutive days before implantation
[12] = 5.0 mg/kg i.v. four consecutive days before implantation

CC(=O)C=C(C)[O-].CC(=O)C=C(C)[O-].NC(Cc1ccc(N(CCCl)CCCl)cc1)C(=O)O.[Cu+2] (stereo not shown) [MOC.melphalan, (C5H7O2)2—Cu—C13H18Cl2N2O2]
% inhibition [1]: 80%
Mass of the tumor ([1]; control 4.4): 0.9 g
% inhibition (mass of the tumor) [2, 10]: 80%
% inhibition (size of the tumor) [2, 10]: 82.5%
Size of the tumor ([2]; 5 mg/kg i.v. 4 days before implantation, control 7.9): 1.38 cm^3
Mass of the tumor ([2]; 5 mg/kg i.v. 4 days in succession before implantation, control 4.46): 0.91 g
Percentage inhibition ([3]; 0.1 mg/animal intraabdominal days 3, 5, 9, day 16): 78%
Average tumor mass ([3]; 0.1 mg/animal intraabdominal days 3, 5, 9, day 16, control 3.22): 0.83 g
mitosis index ([3]; 0.1 mg/animal, day 16, control 4.2): 0.6
Percentage inhibition ([3]; 5 mg/kg intraabdominal days 3, 5, 9, day 21): 100%
Tumor weight ([3]; FIG. 1, single black-line mouse after treatment, control mouse 3.15 g): 0.3 g
DNA ([3]; tumor cells, 0.1 mg/animal, day 16, control 4.3): 0.8 mg/g
Percentage inhibition ([4]; 1 mg/kg intraabdominal days 3, 5, 9): 100%
Percentage inhibition ([4]; 5 mg/kg intraabdominal days 2, 4, 6, 8, 10): 49%
Average tumor mass ([4]; 5 mg/kg intraabdominal days 2, 4, 6, 8, 10, control 3.9 ± 0.5): 2.0 ± 0.7 g
Percentage inhibition ([4]; 5 mg/kg intraabdominal days 3, 5, 7, 9): 100%
Percent inhibition of tumor volume [5, 11]: 40%
Percent inhibition of tumor weight [5, 11]: 40%
Average tumor mass [5, 11]: 2.67 g
Average tumor volume [5, 11]: 4.76 cm^3
Percent inhibition of tumor volume [5, 12]: 82%
Percent inhibition of tumor weight [5, 12]: 80%
Average tumor mass [5, 12]: 0.91 g
Average tumor volume [5, 12]: 1.38 cm^3
DNA concentration ([6]; incubation 40 min): 530 μg/g of cells
DNA concentration ([6]; incubation 60 min): 53 μg/g of cells
DNA concentration/control ([6]; incubation 40 min): 498
DNA concentration/control ([6]; incubation 60 min): 50
Suppression of growth cells ([7]; 10 μg/ml): 30%
Suppression of growth cells ([7]; 100 μg/ml): 95%
Suppression of amino acid inclusion [8]: 59%
ILS % ([9]; 10 mg/kg, days 1, 5, 9): 419%
Number of surviving animals/number of animals in group ([9]; 10 mg/kg, days 1, 5, 9): 5/6
ILS % ([9]; 10 mg/kg, days 1, 7): 465%
Number of surviving animals/number of animals in group ([9]; 10 mg/kg, days 1, 7): 4/6
ILS % ([9]; 15 mg/kg, days 1, 7): 447%
Number of surviving animals/number of animals in group ([9]; 15 mg/kg, days 1, 7): 5/6
